The target in one assay is T1, BRM (Homo sapiens, UniProt P51531).
T1 construct: made in house; host or cells: High Five insect cells
Put plainly: ATPase catalytic activity assay (ADP-Glo), BRM. The class given is biochemical. The following applies: Table 10; for Ratio (BRG1 IC50 (μM) divided by BRM IC50 (μM)): ATPase assay, selectivity BRG1/BRM; for IC50: ATPase catalytic activity assay (ADP-Glo). In a few lines:
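Reaction holds 30 nM BRM, 20 nM salmon sperm DNA and 400 μM ATP in 20 mM Tris pH 8, 20 mM MgCl2, 50 mM NaCl, 0.1% Tween-20, 1 mM DTT. Incubated 1 h at room temperature. ADP formed is detected by ADP-Glo luminescence.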
On the technique in general: ADP-Glo first removes unused ATP, then detects ADP through luciferase.

The target of a further assay is T2, BRG-1 (Homo sapiens, UniProt P51532).
T2 construct: made in house; host or cells: High Five insect cells
T2 sequence (P51532 whole entry): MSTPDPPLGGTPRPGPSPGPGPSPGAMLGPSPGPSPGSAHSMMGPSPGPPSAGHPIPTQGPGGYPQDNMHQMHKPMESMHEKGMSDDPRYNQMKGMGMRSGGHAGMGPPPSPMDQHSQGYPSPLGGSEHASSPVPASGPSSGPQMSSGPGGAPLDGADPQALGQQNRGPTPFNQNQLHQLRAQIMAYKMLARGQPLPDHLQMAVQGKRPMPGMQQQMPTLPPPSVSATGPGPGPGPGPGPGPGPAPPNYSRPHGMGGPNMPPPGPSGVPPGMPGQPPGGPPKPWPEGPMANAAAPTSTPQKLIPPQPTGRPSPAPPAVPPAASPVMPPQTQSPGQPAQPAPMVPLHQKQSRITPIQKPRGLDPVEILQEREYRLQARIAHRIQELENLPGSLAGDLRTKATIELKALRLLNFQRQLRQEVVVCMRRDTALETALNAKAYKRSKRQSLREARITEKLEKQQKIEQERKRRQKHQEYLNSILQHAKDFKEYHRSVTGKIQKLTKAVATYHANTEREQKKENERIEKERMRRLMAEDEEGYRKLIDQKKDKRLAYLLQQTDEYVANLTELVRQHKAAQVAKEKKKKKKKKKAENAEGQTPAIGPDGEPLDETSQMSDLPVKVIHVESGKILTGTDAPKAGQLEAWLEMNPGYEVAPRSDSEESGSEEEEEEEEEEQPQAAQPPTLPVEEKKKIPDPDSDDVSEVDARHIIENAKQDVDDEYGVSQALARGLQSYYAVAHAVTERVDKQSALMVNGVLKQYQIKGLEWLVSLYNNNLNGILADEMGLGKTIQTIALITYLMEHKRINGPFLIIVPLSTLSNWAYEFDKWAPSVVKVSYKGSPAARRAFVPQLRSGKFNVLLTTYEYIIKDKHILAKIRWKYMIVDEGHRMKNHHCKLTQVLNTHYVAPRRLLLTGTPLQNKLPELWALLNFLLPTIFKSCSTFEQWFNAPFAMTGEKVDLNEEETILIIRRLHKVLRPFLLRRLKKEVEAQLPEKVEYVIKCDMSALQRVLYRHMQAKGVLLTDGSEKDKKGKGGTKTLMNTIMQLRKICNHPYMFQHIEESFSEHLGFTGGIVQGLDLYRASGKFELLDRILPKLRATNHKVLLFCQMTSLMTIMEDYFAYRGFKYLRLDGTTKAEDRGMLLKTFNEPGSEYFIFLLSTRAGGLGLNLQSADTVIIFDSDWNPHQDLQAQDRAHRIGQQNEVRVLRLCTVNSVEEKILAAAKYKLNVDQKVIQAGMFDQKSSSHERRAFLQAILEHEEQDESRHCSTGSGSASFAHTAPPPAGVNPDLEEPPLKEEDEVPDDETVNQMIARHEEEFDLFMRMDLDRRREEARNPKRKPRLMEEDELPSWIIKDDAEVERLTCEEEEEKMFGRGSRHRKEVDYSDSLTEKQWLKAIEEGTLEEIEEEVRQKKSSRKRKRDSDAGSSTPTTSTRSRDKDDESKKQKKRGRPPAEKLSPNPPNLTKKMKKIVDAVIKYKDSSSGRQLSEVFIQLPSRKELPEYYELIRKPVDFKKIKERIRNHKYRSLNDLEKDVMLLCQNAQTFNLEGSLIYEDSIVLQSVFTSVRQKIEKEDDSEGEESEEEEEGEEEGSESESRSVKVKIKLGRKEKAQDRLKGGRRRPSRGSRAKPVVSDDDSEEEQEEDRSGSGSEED
Briefly: ATPase catalytic activity assay (ADP-Glo), BRG-1. The class given is biochemical. The following applies: Table 10, read-out: BRG1 IC50. Summed up: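 BRG-1 ATPase activity was measured by ADP-Glo. Unconsumed ATP was depleted for 40 min at room temperature, then ADP was converted to ATP for 60 min and read as luminescence.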

The record followed here is patent publication US12139487B2, “Compounds and uses thereof” (Foghorn Therapeutics Inc., priority 2022, dated 2024).

Broadly, the IC50 is the concentration needed to halve the response being measured.

T1 sequence (P51531 whole entry): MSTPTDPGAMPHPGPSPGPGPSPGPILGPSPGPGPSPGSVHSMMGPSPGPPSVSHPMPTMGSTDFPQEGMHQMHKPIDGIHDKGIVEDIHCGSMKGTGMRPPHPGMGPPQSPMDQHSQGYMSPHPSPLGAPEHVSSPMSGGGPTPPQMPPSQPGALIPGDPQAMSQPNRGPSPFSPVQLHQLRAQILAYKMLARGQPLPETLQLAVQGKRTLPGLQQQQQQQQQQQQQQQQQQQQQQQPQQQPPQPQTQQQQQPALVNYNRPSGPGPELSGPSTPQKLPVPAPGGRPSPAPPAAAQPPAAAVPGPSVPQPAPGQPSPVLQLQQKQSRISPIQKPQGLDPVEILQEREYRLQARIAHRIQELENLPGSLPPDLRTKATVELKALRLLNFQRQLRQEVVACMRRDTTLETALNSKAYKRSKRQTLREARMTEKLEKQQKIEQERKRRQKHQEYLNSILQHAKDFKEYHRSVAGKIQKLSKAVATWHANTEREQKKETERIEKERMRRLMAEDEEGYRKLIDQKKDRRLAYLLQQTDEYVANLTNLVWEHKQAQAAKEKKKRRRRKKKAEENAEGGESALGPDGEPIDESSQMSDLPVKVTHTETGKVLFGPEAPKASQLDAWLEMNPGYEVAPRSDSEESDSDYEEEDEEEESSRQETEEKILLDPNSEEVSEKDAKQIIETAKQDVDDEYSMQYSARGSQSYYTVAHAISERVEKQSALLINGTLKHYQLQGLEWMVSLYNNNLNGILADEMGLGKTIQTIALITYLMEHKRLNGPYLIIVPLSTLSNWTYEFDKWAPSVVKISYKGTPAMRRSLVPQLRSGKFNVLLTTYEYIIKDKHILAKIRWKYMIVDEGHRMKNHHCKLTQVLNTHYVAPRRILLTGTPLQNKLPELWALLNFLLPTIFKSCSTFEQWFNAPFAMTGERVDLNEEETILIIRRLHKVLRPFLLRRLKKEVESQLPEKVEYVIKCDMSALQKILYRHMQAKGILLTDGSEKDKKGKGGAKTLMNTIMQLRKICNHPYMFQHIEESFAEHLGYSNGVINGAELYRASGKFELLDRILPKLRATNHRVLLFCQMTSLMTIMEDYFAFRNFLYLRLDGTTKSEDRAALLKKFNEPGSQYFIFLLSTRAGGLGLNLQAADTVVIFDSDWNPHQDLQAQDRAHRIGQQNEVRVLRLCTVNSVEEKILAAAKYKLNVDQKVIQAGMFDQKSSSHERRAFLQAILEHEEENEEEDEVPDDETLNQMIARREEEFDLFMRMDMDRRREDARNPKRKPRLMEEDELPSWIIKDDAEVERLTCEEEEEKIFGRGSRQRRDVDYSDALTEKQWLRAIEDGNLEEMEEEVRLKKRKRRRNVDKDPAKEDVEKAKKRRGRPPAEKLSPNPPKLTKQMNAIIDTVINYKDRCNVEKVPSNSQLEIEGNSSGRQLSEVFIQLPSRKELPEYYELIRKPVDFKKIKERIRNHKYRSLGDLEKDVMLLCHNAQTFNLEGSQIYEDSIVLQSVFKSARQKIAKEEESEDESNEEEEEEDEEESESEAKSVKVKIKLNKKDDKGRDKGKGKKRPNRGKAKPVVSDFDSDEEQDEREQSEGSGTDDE

`COc1nc([C@H](F)C(F)F)ccc1-c1ccc2cnc(CNC(=O)c3cc(F)c4c(c3)S(=O)(=O)[C@@H](F)CCO4)cc2n1` [Compound 287]: the “Ratio (BRG1 IC50 (μM) divided by BRM IC50 (μM))” value at BRM stood at 11.77. Moreover, the IC50 was 9.6 nM at BRM and 113 nM on BRG-1.
The matching figures for `COc1nscc1-c1ccc2cnc(CNC(=O)c3cc(F)c4c(c3)S(=O)(=O)[C@@H](F)CCO4)cc2n1` [Compound 288]: 26.09, 9.6 nM and 203 nM.
For the molecule `C[C@@H]1CCN1c1cnc2c(c1)OCCN2c1ccc2cnc(CNC(=O)c3cc(Cl)c4c(c3)S(=O)(=O)[C@@H](F)COC4)cc2n1` [Compound 289], the “Ratio (BRG1 IC50 (μM) divided by BRM IC50 (μM))” value at BRM was 11.49. For the same molecule, the IC50 was 9.6 nM against BRM and 115 nM at BRG-1.
For `O=C(NCc1cc2nc(-c3ccnc(C45CC(C4)C5)n3)ccc2cn1)c1cc(F)c2c(c1)S(=O)(=O)[C@@H](F)COC2` [Compound 290], in that order: 17.27, 9.6 nM and 187 nM.
Consider `COc1nc(CC(F)F)ccc1-c1ccc2cnc(CNC(=O)c3cc(F)c4c(c3)S(=O)(=O)[C@@H](F)CCO4)cc2n1` [Compound 292], for which, on BRM, the “Ratio (BRG1 IC50 (μM) divided by BRM IC50 (μM))” value turned out to be 23.12 and the IC50 was 9.8 nM. For the same molecule, the IC50 on BRG-1 is 226 nM.
In the case of `O=C(NCc1cc2nc(N3CCCc4cc(C5COC5)cnc43)ccc2cn1)c1cc(F)c2c(c1)S(=O)(=O)[C@@H](F)CCO2` [Compound 293], at BRM, the “Ratio (BRG1 IC50 (μM) divided by BRM IC50 (μM))” value was 17.20 and the midpoint of inhibition, the IC50, lay at 9.8 nM. Further, the IC50 at BRG-1 was 168 nM.
On to `COc1ccc(-c2ccc3cnc(CNC(=O)c4cc(Cl)c5c(c4)S(=O)(=O)[C@@H](F)COC5)cc3n2)nc1[C@@H]1CC1(F)F` [Compound 294], for which, on BRM, the “Ratio (BRG1 IC50 (μM) divided by BRM IC50 (μM))” value was determined as 35.16 and it took 9.8 nM to reach half-maximal inhibition (IC50). On BRG-1, the IC50 was 344 nM.
For `COCCOc1nccc2c1CCCN2c1ccc2cnc(CNC(=O)c3cc(F)c4c(c3)S(=O)(=O)[C@@H](F)CCO4)cc2n1` [Compound 295], in that order: 16.68, 9.8 nM and 174 nM.
Consider `CN(C)c1ccnc2c1OCCN2c1ccc2cnc(CNC(=O)c3cc(F)c4c(c3)S(=O)(=O)[C@@H](F)CCO4)cc2n1` [Compound 296], for which, on BRM, the “Ratio (BRG1 IC50 (μM) divided by BRM IC50 (μM))” value is given as 11.58 and half-maximal inhibition (IC50) was put at 9.9 nM. Moreover, at BRG-1, the IC50 amounted to 114 nM.
For `O=C(NCc1cc2nc(-c3cccc(OC(F)F)c3)ccc2cn1)c1cc(F)c2c(c1)S(=O)(=O)[C@@H](F)COC2` [Compound 297, (2R)—N-[[2-[3-(difluoromethoxy)phenyl]-1,6-naphthyridin-7-yl]methyl]-2,6-difluoro-1,1-dioxo-3,5-dihydro-2H-4,1λ6-benzoxathiepine-8-carboxamide], in that order: 29.64, 9.9 nM and 266 nM.
Regarding `COc1nc([C@@H](F)C(F)F)ccc1-c1ccc2cnc(CNC(=O)c3cc(F)c4c(c3)S(=O)(=O)[C@@H](F)CCO4)cc2n1` [Compound 298], on BRM, the “Ratio (BRG1 IC50 (μM) divided by BRM IC50 (μM))” value was determined as 14.40. For the same molecule, the IC50 at BRM came out at 9.9 nM; at BRG-1, 143 nM.
With `C[C@@H]1CCN1c1cnc2c(c1)OCCN2c1ccc2cnc(CNC(=O)c3cc(Br)c4c(c3)S(=O)(=O)[C@@H](F)CCO4)cc2n1` [Compound 299], at BRM, the “Ratio (BRG1 IC50 (μM) divided by BRM IC50 (μM))” value is given as 29.29 and half-maximal inhibition (IC50) required 9.9 nM. Moreover, the IC50 on BRG-1 amounted to 295 nM.
For the molecule `C[C@H]1C[C@H]1c1cnc2c(c1)OCCN2c1ccc2cnc(CNC(=O)c3cc(F)c4c(c3)S(=O)(=O)[C@@H](F)CCO4)cc2n1` [Compound 300], the “Ratio (BRG1 IC50 (μM) divided by BRM IC50 (μM))” value on BRM was found to be 11.89. Moreover, the IC50 turned out to be 9.9 nM against BRM and 118 nM on BRG-1.
In the case of `COc1nc(-c2ccc3cnc(CNC(=O)c4cc(Cl)c5c(c4)S(=O)(=O)[C@@H](F)COC5)cc3n2)ccc1C(F)F` [Compound 301], the “Ratio (BRG1 IC50 (μM) divided by BRM IC50 (μM))” value at BRM amounted to 18.66. In addition, the IC50 at BRM amounted to 10 nM; at BRG-1, 175 nM.
For `O=C(NCc1cc2nc(-c3cccc(C4CC4)n3)ccc2cn1)c1cc(Cl)c2c(c1)S(=O)(=O)[C@@H](F)COC2` [Compound 302], on BRM, the “Ratio (BRG1 IC50 (μM) divided by BRM IC50 (μM))” value is on record as 30.11 and the IC50 stood at 10 nM. The IC50 on BRG-1 came to 348 nM.
The matching figures for `O=C(NCc1cc2cc(N3CCOc4cc(C(F)F)cnc43)ccc2cn1)c1cc(F)c2c(c1)S(=O)(=O)[C@@H](F)CCO2` [Compound 303]: 10.70, 10.1 nM and 108 nM.
Turning to `O=C(NCc1cc2nc(N3CCOc4cc(F)c(C(F)F)nc43)ccc2cn1)c1cc(F)c2c(c1)S(=O)(=O)[C@@H](F)CCO2` [Compound 304], at BRM, the “Ratio (BRG1 IC50 (μM) divided by BRM IC50 (μM))” value stood at 15.65 and the IC50 came out at 10.1 nM. Further, at BRG-1, the IC50 was found to be 158 nM.
Consider `COc1cnc2c(c1)CCCN2c1ccc2cnc(CNC(=O)c3cc(F)c4c(c3)S(=O)(=O)[C@@H](F)CCO4)cc2c1` [Compound 305], for which, at BRM, the “Ratio (BRG1 IC50 (μM) divided by BRM IC50 (μM))” value was 12.14 and it took 10.3 nM to reach half-maximal inhibition (IC50). Also, the IC50 at BRG-1 amounted to 125 nM.
Regarding `COc1nc(C(F)F)ccc1-c1ccc2cnc(CNC(=O)c3cc(Cl)c4c(c3)S(=O)(=O)[C@@H](F)CCO4)cc2n1` [Compound 306], at BRM, the “Ratio (BRG1 IC50 (μM) divided by BRM IC50 (μM))” value was determined as 32.74 and the IC50 worked out at 10.3 nM. The IC50 at BRG-1 is 360 nM.
Take `O=C(NCc1cc2nc(-c3cccc(OC(F)(F)F)n3)ccc2cn1)c1cc(F)c2c(c1)S(=O)(=O)[C@@H](F)COC2` [Compound 307]: on BRM, the “Ratio (BRG1 IC50 (μM) divided by BRM IC50 (μM))” value is given as 20.42 and the midpoint of inhibition, the IC50, lay at 10.4 nM. Also, the IC50 on BRG-1 came to 161 nM.
`COc1nc([C@H](C)F)ccc1-c1ccc2cnc(CNC(=O)c3cc(Cl)c4c(c3)S(=O)(=O)[C@@H](F)CCO4)cc2n1` [Compound 308]: at BRM, the “Ratio (BRG1 IC50 (μM) divided by BRM IC50 (μM))” value was found to be 28.69 and the IC50 amounted to 10.4 nM. Also, the IC50 on BRG-1 came out at 329 nM.
In the case of `O=C(NCc1cc2nc(N3CCOc4cc(C#CC5CC5)cnc43)ccc2cn1)c1cc(F)c2c(c1)S(=O)(=O)[C@@H](F)COC2` [Compound 309], at BRM, the “Ratio (BRG1 IC50 (μM) divided by BRM IC50 (μM))” value is 11.01 and the IC50 came to 10.5 nM. For the same molecule, the IC50 at BRG-1 was 115 nM.
On to `CCOc1ccc(-c2ccc3cnc(CNC(=O)c4cc(F)c5c(c4)S(=O)(=O)[C@@H](F)CCO5)cc3n2)nc1[C@H]1CC1(F)F` [Compound 313], for which, at BRM, the “Ratio (BRG1 IC50 (μM) divided by BRM IC50 (μM))” value was determined as 36.05 and the IC50 stood at 13 nM. In addition, on BRG-1, the IC50 is 554 nM.
With `C#Cc1cc(C(=O)NCc2cc3nc(-c4cccc(N5C[C@@H](C)O[C@@H](C)C5)n4)ccc3cn2)cc2c1OCC[C@@H](F)S2(=O)=O` [Compound 315], at BRM, the “Ratio (BRG1 IC50 (μM) divided by BRM IC50 (μM))” value is given as 43.60 and the IC50 was 24.9 nM. For the same molecule, on BRG-1, the IC50 turned out to be 1080 nM.
In the case of `C[C@@H]1CN(c2cccc(-c3ccc4cnc(CNC(=O)c5cc(OC(F)F)c6c(c5)S(=O)(=O)[C@@H](F)CCO6)cc4n3)n2)C[C@H](C)O1` [Compound 316], on BRM, the “Ratio (BRG1 IC50 (μM) divided by BRM IC50 (μM))” value was found to be 17.77. In addition, the figures for the IC50 against BRM and on BRG-1 were 18.3 nM and 325 nM, respectively.
